pIC50: −log10 of the molar value.
Assays:
[1] = molecular target: G12C mutant of inactive KRAS (GDP) (Homo sapiens (Human), UniProt P01116, G12C); conditions: reported in PTL 1 and NPL 2; cited from earlier work
[2] = tested on: cancer cells with KRAS G12C mutation; conditions: reported in PTL 1 and NPL 2; cited from earlier work
[3] = molecular target: G12C K-Ras4B (1-169) (Homo sapiens (Human), UniProt P01116, G12C); test: Test of compounds on whether to bind to KRASG12C (LC-MS compound binding rate); conditions: final compound concentration of 2 μM, 1 μM protein, 25° C. for 2 hours
G12C K-Ras4B (1-169), sequence (P01116 other isoform, or with tags, fused parts or gaps G12C): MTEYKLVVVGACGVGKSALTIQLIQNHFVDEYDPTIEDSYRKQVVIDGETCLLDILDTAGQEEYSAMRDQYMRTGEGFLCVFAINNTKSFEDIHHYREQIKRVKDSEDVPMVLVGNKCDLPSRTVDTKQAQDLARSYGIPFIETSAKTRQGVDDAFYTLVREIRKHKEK
Summary of the method: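 K-Ras4B (1-169) WT and G12C (1 μM each, mixed) in 1×TBS, 0.1 mM TCEP incubated with compound (final 2 μM) 2 h at 25° C; quenched with 0.2% formic acid. Intact-protein LC-MS (ESI+, deconvoluted); binding rate = adduct signal/(adduct + unbound signal), giving selectivity over WT.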

[4] = tested on: NCI-H358 cells; test: Growth inhibition activity on KRAS-G12C mutant cell line (NCI-H358) (in vitro, CellTiter-Glo2.0); format: cell-based; conditions: Homo sapiens, NCI-H358, 72 h, 3-day culture in the presence of the compound
Method: NCI-H358 cells (ATCC, Cat #: CRL-5807), which are a KRAS-G12C mutant human lung cancer cell line, were suspended in a 10% fetal bovine serum-containing RPMI1640 medium (manufactured by Fujifilm Wako Pure Chemical Corporation.). The cell suspension was seeded into each well of a 384-well flat-bottom microplate and cultured in an incubator containing 5% CO2 gas at 37° C. for 1 day. The test compound was dissolved in DMSO, and diluted with DMSO to give a concentration 500 times the final concentration. The solution of the test compound in DMSO was diluted with the medium used for suspending cells and added to each well of the cell-culture plate to give a DMSO final concentration of 0.2%, followed by culture in an incubator containing 5% CO2 gas at 37° C. for another 3 days. The cell count after 3-day culture in the presence of the compound was measured using CellTiter-Glo2.0 (manufactured by Promega Corporation) in accordance with the protocol recommended by Promega Corporation. The growth inhibition rate was calculated from the following equation, and the concentration of the test compound at which 50% inhibition was achieved (IC50 (nM)) was determined. […] Growth Inhibition Rate (%)=(C−T)/(C)×100 • T: the emission intensity in a well into which a test compound was added. • C: the emission intensity in a well into which a test compound was not added.

[5] = tested on: tumor-bearing mice expressing KRAS G12C mutation; conditions: reported in PTL 2 and NPL 3; cited from earlier work

G12C mutant of inactive KRAS (GDP), sequence (P01116-2 other isoform, or with tags, fused parts or gaps G12C): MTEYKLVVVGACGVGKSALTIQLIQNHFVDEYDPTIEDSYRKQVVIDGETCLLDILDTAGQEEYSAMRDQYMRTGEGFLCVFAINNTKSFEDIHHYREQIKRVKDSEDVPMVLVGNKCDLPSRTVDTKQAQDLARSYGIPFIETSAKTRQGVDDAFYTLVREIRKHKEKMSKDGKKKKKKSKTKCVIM

C=CC(=O)N1CC(N2CCN(C(=O)CNc3cc(C4(C)CC4)c(Cl)cc3O)CC2)C1 [ARS-853]
binding to the cysteine of the G12C mutant of inactive KRAS (GDP) [1]: binds to the cysteine of the G12C mutant of inactive KRAS (GDP) | induction of apoptosis [2]: inducing apoptosis in cancer cells with KRAS G12C mutation

C=CC(=O)N1CC(NC(=O)c2c(Cl)nc(CNc3n[nH]c4cc(Cl)c(C(C)(C)C)cc34)n2[C@@H]2CCOC2)C1 [Example 102, (R)—N-(1-acryloylazetidin-3-yl)-2-(((5-(tert-butyl)-6-chloro-1H-indazol-3-yl)amino)methyl)-4-chloro-1-(tetrahydrofuran-3-yl)-1H-imidazole-5-carboxamide]
binding rate for G12C K-Ras4B (1-169) [3]: A (a binding rate of 80% or more is rated “A,”) | pIC50 [4]: 7.16

C=CC(=O)N1CC(NC(=O)c2c(Cl)nc(CNc3n[nH]c4cc(Cl)c(C(C)(C)C)cc34)n2C2CCOCC2)C1 [Example 101, N-(1-acryloylazetidin-3-yl)-2-(((5-(tert-butyl)-6-chloro-1H-indazol-3-yl)amino)methyl)-4-chloro-1-(tetrahydro-2H-pyran-4-yl)-1H-imidazole-5-carboxamide]
binding rate for G12C K-Ras4B (1-169) [3]: A (a binding rate of 80% or more is rated “A,”) | pIC50 [4]: 7.27

C=CC(=O)N1CC(NC(=O)c2c(Cl)nc(CNc3n[nH]c4cc(Cl)c(C(C)(C)C)cc34)n2C2CN(C(=O)OC(C)(C)C)C2)C1 [Example 106, Tert-butyl 3-(5-((1-acryloylazetidin-3-yl)carbamoyl)-2-(((5-(tert-butyl)-6-chloro-1H-indazol-3-yl)amino)methyl)-4-chloro-1H-imidazol-1-yl)azetidine-1-carboxylate]
binding rate for G12C K-Ras4B (1-169) [3]: A (a binding rate of 80% or more is rated “A,”) | pIC50 [4]: 7.38

C=CC(=O)N1C[C@H](NC(=O)c2c(Cl)nc(CNc3n[nH]c4cc(Cl)c(C(C)(C)C)cc34)n2C)[C@@H](F)C1 [Example 76, N-((3S,4S)-1-acryloyl-4-fluoropyrrolidin-3-yl)-2-(((5-(tert-butyl)-6-chloro-1H-indazol-3-yl)amino)methyl)-4-chloro-1-methyl-1H-imidazole-5-carboxamide]
binding rate for G12C K-Ras4B (1-169) [3]: A (a binding rate of 80% or more is rated “A,”) | pIC50 [4]: 6.63

C=CC(=O)N1C[C@H](NC(=O)c2c(C)nc(CNc3n[nH]c4cc(Cl)c(C(C)(C)C)cc34)n2C)[C@@H](F)C1 [Example 64, N-((3S,4S)-1-acryloyl-4-fluoropyrrolidin-3-yl)-2-(((5-(tert-butyl)-6-chloro-1H-indazol-3-yl)amino)methyl)-1,4-dimethyl-1H-imidazole-5-carboxamide]
binding rate for G12C K-Ras4B (1-169) [3]: A (a binding rate of 80% or more is rated “A,”) | pIC50 [4]: 6.62

C=CC(=O)N1CC(NC(=O)c2c(Cl)nc(CNc3n[nH]c4cc(Cl)c(C(C)(C)C)cc34)n2C)C1 [Example 29, N-(1-acryloylazetidin-3-yl)-2-(((5-(tert-butyl)-6-chloro-1H-indazol-3-yl)amino)methyl)-4-chloro-1-methyl-1H-imidazole-5-carboxamide]
binding rate for G12C K-Ras4B (1-169) [3]: B (a binding rate of 60% or more and less than 80% is rated “B,”) | pIC50 [4]: 7.47

C=CC(=O)N1CC(NC(=O)c2c(Cl)nc(CNc3n[nH]c4cc(Cl)c(C(C)(C)C)cc34)n2[C@@H]2C[C@@H](C)N(CC(F)F)C2)C1 [Example 126, N-(1-acryloylazetidin-3-yl)-2-(((5-(tert-butyl)-6-chloro-1H-indazol-3-yl)amino)methyl)-4-chloro-1-((3R,5R)-1-(2,2-difluoroethyl)-5-methylpyrrolidin-3-yl)-1H-imidazole-5-carboxamide]
binding rate for G12C K-Ras4B (1-169) [3]: A (a binding rate of 80% or more is rated “A,”) | pIC50 [4]: 7.46

C=CC(=O)N1CCN(c2ncnc3c(F)c(-c4c(O)cccc4F)c(Cl)cc23)CC1 [ARS-1620]
antitumor action [5]: exerts antitumor action in tumor-bearing mice expressing KRAS G12C mutation

C=CC(=O)N1CC(NC(=O)c2c(Cl)nc(CNc3n[nH]c4cc(Cl)c(C(C)(C)C)cc34)n2C2CCCC2)C1 [Example 105, N-(1-acryloylazetidin-3-yl)-2-(((5-(tert-butyl)-6-chloro-1H-indazol-3-yl)amino)methyl)-4-chloro-1-cyclopentyl-1H-imidazole-5-carboxamide]
binding rate for G12C K-Ras4B (1-169) [3]: A (a binding rate of 80% or more is rated “A,”) | pIC50 [4]: 7.12

C=CC(=O)N1CC(NC(=O)c2c(Cl)nc(CNc3n[nH]c4cc(Cl)c(C(C)(C)C)cc34)n2[C@@H]2CCN(C(C)C)C2)C1 [Example 114, (R)—N-(1-acryloylazetidin-3-yl)-2-(((5-(tert-butyl)-6-chloro-1H-indazol-3-yl)amino)methyl)-4-chloro-1-(1-isopropylpyrrolidin-3-yl)-1H-imidazole-5-carboxamide]
binding rate for G12C K-Ras4B (1-169) [3]: A (a binding rate of 80% or more is rated “A,”) | pIC50 [4]: 7.49

C=CC(=O)N1CC(NC(=O)c2c(C)nc(CNc3n[nH]c4cc(Cl)c(C(C)(C)C)cc34)n2C(C)C)C1 [Example 13, N-(1-acryloylazetidin-3-yl)-2-(((5-(tert-butyl)-6-chloro-1H-indazol-3-yl)amino)methyl)-1-isopropyl-4-methyl-1H-imidazole-5-carboxamide]
binding rate for G12C K-Ras4B (1-169) [3]: A (a binding rate of 80% or more is rated “A,”) | pIC50 [4]: 6.87

C=CC(=O)N1C[C@H](NC(=O)c2c(F)nc(CNc3n[nH]c4cc(Cl)c(C(C)(C)C)cc34)n2C)[C@@H](F)C1 [Example 75, N-((3S,4S)-1-acryloyl-4-fluoropyrrolidin-3-yl)-2-(((5-(tert-butyl)-6-chloro-1H-indazol-3-yl)amino)methyl)-4-fluoro-1-methyl-1H-imidazole-5-carboxamide]
binding rate for G12C K-Ras4B (1-169) [3]: A (a binding rate of 80% or more is rated “A,”) | pIC50 [4]: 6.85

C=CC(=O)N1CC(NC(=O)c2c(Cl)nc(CNc3n[nH]c4cc(Cl)c(C(C)(C)C)cc34)n2[C@@H]2CCN(c3ccccn3)C2)C1 [Example 124, (R)—N-(1-acryloylazetidin-3-yl)-2-(((5-(tert-butyl)-6-chloro-1H-indazol-3-yl)amino)methyl)-4-chloro-1-(1-(pyridin-2-yl)pyrrolidin-3-yl)-1H-imidazole-5-carboxamide]
binding rate for G12C K-Ras4B (1-169) [3]: A (a binding rate of 80% or more is rated “A,”) | pIC50 [4]: 7.72

C=CC(=O)N1CC(NC(=O)c2c(C(F)F)nc(CNc3n[nH]c4cc(Cl)c(C(C)(C)C)cc34)n2C(C)C)C1 [Example 33, N-(1-acryloylazetidin-3-yl)-2-(((5-(tert-butyl)-6-chloro-1H-indazol-3-yl)amino)methyl)-4-(difluoromethyl)-1-isopropyl-1H-imidazole-5-carboxamide]
binding rate for G12C K-Ras4B (1-169) [3]: A (a binding rate of 80% or more is rated “A,”) | pIC50 [4]: 6.82

C=CC(=O)N1CC(NC(=O)c2c(Cl)nc(CNc3n[nH]c4cc(Cl)c(C(C)(C)C)cc34)n2C2CCCOC2)C1 (stereo not shown) [Example 104, N-(1-acryloylazetidin-3-yl)-2-(((5-(tert-butyl)-6-chloro-1H-indazol-3-yl)amino)methyl)-4-chloro-1-(tetrahydro-2H-pyran-3-yl)-1H-imidazole-5-carboxamide]
binding rate for G12C K-Ras4B (1-169) [3]: A (a binding rate of 80% or more is rated “A,”) | pIC50 [4]: 7.04
